Source: PMC4501119, “Cholestenoic acid, an endogenous cholesterol metabolite, is a potent γ-secretase modulator” (Molecular Neurodegeneration, 2015)
Where “and” joins values, the source holds several entries; their conditions need not be identical. Equal values may be shown once. Entries after “also recorded” stand apart in the source; their conditions may differ.

How the values were obtained:
γ-secretase = biological target: T1, γ-secretase (Homo sapiens, UniProt P49768); experiment: In vitro γ-secretase (broken cell) assay, membranes of H4 neuroglioma cells overexpressing APP695wt, Aβ ELISA; format: biochemical; conditions: vs DMSO control, 2 h incubation
T1 construct: The membrane derived from the H4 neuroglioma cells overexpressing APP695wt were prepared by carbonate extraction; endogenous in cells; host or cells: H4 neuroglioma cells overexpressing APP695wt (membranes, carbonate extraction)
Method: Broken cell assays were performed with slight modifications from the previous studies. The membrane derived from the H4 neuroglioma cells overexpressing APP695wt were prepared by carbonate extraction and incubated at 37 °C for 2 h with CA at various concentrations. Aβ levels were quantified by sandwich ELISAs. For Aβ and AICD spectra, the recombinant C100Flag proteins were overexpressed and purified from Escherichia coli BL21 using a HiTrap Q-column (GE Life Science, Little Chalfont, U.K.). The membrane containing γ-secretase was isolated from the CHO S-1 cell line using sodium carbonate (100 mM, pH 11.0). For the in vitro γ-secretase assay, C100Flag recombinant protein at 25 μM was incubated with the membrane (100 μg/mL) in the presence of CA (20 μM) and DMSO in 150 mM sodium citrate buffer (pH 6.8) containing complete protease inhibitor (Roche, Indianapolis, IN) for 2 h at 37 °C.
Monoclonal antibodies to Aβ were generated by the Mayo Clinic Immunology Core facilities (Jacksonville, FL, USA). Ab5 recognizes an epitope in the amino terminus of Aβ (Aβ1-16), recognizes both monomeric and aggregated Aβ, and is human specific. […] Ab 2.1.3 was raised against Aβ35-42 and is specific for Aβx-42. […] For cell-based screens, Aβ was captured from conditioned medium with either Ab5, Ab38, Ab13.1.1, or Ab2.1.3 (coated at 10-50 μg/ml in EC buffer: 5 mM NaH2PO4-H2O, 20 mM Na2HPO4, 400 mM NaCl, 2.5 mM EDTA-full name, 151.5 μM BSA, 813 μM CHAPS, and 7.7 mM NaN3) on Immulon 4HBX Flat-Bottom Microfilter 96-well plates (Thermo Scientific, Waltham, MA, USA). Total Aβ level was determined by capture with Ab5 and detected with horseradish peroxidase (HRP)-conjugated 4G8 (a monoclonal antibody against Aβ17-24; Covance, Waltham, MA, USA) with the other Aβ peptides detected with HRP-conjugated Ab5. For the cell-free assay and measuring mouse endogenous Aβ, HRP-conjugated 4G8 was used as the secondary detection antibody. Aβ standards (Bachem, King of Prussia, PA, USA) were prepared by dissolving in hexafluoroisopropanol (HFIP) at 1 mg/ml with sonication, dried under nitrogen, resuspended at 2 mg/ml HFIP, sonicated again and dried under nitrogen. The resulting Aβ was resuspended in 0.01 % ammonium hydroxide, portioned into aliquots in EC buffer, and frozen at −80 °C. Following these steps, the Aβ is monomeric, as determined by size-exclusion chromatography.

[1] = tested on: brain mAβ42, mAβ38 and total mAβ; experiment: Brain Aβ levels after intraperitoneal injection in wild type mice; format: in vivo, mouse (C57BL/6 or CF-1)
Method: (§1) 25(R)-CA powder was initially dissolved in DMSO (<4.5 % in the final mixture) and then combined with polyethylene glycol (15)-hydroxystearate (Solutol), ethanol, and water at a ratio of (15:10:75). One molar equivalent of sodium hydroxide was added to the mixture. We performed CA intraperitoneal (IP) injections to wild-type mice (C57BL/6 or CF-1). The mice were injected with 25(R)-CA on the right side of the abdomen. The injections have been performed with various time points (30 min, 1 h, 2 h, and 3 h) and with multiple doses (30 mg per kg (mg/kg), 60 mg/kg, 75 mg/kg and 100 mg/kg). The number of each cohort is 6–8. We used 30 mg/kg of CA for the time-course experiments, and for the dose–response experiments the end-point was set at 30 min. The brains and serum are harvested and frozen for brain Aβ extraction.
The mouse brains were harvested at the age of 3 months. The brains were weighed and recorded. The Diethylamine/Sodium Chloride (DEA/NaCl) extraction buffer (0.4 % DEA) was added to each sample and homogenized using a sonicator. The samples were transferred to a poly-carbonate centrifuge tube and spun down at 50,000xg for 30 min at 4 °C. The supernatant was loaded on the vacuum manifold with the appropriate number of HLB Oasis columns. The samples were loaded on the conditioned column, filtered, and eluted using prepared elution buffer (90 % Methanol, 2 % NH4OH). The eluates are concentrated using the Thermo-Savant SpeedVac concentrator for a minimum of 2 h at 55 °C with radiant heat. The concentrated samples are reconstituted in a blocking buffer (0.67 % Bovine serum albumin (BSA)) at the appropriate volume.
Monoclonal antibodies to Aβ were generated by the Mayo Clinic Immunology Core facilities (Jacksonville, FL, USA). […] Total Aβ level was determined by capture with Ab5 and detected with horseradish peroxidase (HRP)-conjugated 4G8 (a monoclonal antibody against Aβ17-24; Covance, Waltham, MA, USA) with the other Aβ peptides detected with HRP-conjugated Ab5. […] Following these steps, the Aβ is monomeric, as determined by size-exclusion chromatography.

[2] = Plasma CA concentration after IP injection (HPLC-MS-MS); format: in vivo, mouse (C57BL/6); conditions: mice
Method: as §1
The plasma samples were extracted using published solid phase extraction method (72) and analyzed by HPLC-MS-MS. Briefly, 0.1 ml mouse plasma samples after adding 20 μl of D3-CA as internal standard were preconditioned with 1.4 ml of ethanol (99.9 %), and 0.5 ml of water, centrifuged at 4 °C, 4000 rpm for 10 min. This solution was then loaded onto a Sep-Pak tC18 (SPE1) solid phase extraction cartridge which were preconditioned with 70 % ethanol. […]

SMILES: CC(CCC[C@@H](C)C(=O)O)[C@H]1CCC2C3CC=C4C[C@@H](O)CC[C@]4(C)C3CC[C@@]21C (stereo partly drawn) [Cmpd 2a, 25(R)-cholestenoic acid]
- change in total Aβ levels (γ-secretase): without any significant changes
- decrease of Aβ42 production (γ-secretase; CA at 150 μM, listed as CA): 50% and 51%
- brain Aβ levels ([1]; 30 mg/kg IP, brains harvested after 30 min, 1, 2 and 3 h): no changes
- brain mAβ42, mAβ38 and total mAβ ([1]; 30, 60, 75, 100 mg/kg IP, vs vehicle-injected control, listed as CA): No significant effects; also recorded: did not show acute effects; also recorded: did not affect
- plasma CA concentration ([2]; 30 mg/kg IP, listed as CA): 200 ng/mL and ~ 500 nM
- concentration at 30 min ([2]; C57BL/6, mouse, plasma, intraperitoneal, 100 mg/kg IP): 4000 ng/mL and ~10 µM
